Measured values published in article PMC11593465, “Na^+ Translocation Dominates over H^+-Translocation in the Membrane Pyrophosphatase with Dual Transport Specificity” (International Journal of Molecular Sciences, 2024).

Assays:
[1] = biological target: T1, Da-mPPase (Na+-translocating mPPase of Desulfuromonas acetoxidans) (Desulfuromonas acetoxidans, UniProt Q1JY39); assay: PPi hydrolysis (continuous Pi assay) and pyranine Na+ transport assay, membrane vesicles; type: biochemical; conditions: 150 µM PPi, 5 mM MgSO4, 5 mM Na2SO4, 25 mM K2SO4, 100 mM Mops-KOH pH 7.2
T1 construct: gene hppA; recombinant, expressed in E. coli C41(DE3), in inverted membrane vesicles; homodimer of approx. 70-kDa subunits

[2] = biological target: T2, Dh-mPPase (H+-translocating mPPase of Desulfitobacterium hafniense) (Desulfitobacterium hafniense, UniProt B8FXV7); assay: PPi hydrolysis (continuous Pi assay) and pyranine H+ transport assay, membrane vesicles; type: biochemical; conditions: 150 µM PPi, 5 mM MgSO4, 5 mM Na2SO4, 25 mM K2SO4, 100 mM Mops-KOH pH 7.2
T2 construct: gene hppA; recombinant, expressed in E. coli C41(DE3), in inverted membrane vesicles; homodimer of approx. 70-kDa subunits
T2 sequence (B8FXV7 1-671): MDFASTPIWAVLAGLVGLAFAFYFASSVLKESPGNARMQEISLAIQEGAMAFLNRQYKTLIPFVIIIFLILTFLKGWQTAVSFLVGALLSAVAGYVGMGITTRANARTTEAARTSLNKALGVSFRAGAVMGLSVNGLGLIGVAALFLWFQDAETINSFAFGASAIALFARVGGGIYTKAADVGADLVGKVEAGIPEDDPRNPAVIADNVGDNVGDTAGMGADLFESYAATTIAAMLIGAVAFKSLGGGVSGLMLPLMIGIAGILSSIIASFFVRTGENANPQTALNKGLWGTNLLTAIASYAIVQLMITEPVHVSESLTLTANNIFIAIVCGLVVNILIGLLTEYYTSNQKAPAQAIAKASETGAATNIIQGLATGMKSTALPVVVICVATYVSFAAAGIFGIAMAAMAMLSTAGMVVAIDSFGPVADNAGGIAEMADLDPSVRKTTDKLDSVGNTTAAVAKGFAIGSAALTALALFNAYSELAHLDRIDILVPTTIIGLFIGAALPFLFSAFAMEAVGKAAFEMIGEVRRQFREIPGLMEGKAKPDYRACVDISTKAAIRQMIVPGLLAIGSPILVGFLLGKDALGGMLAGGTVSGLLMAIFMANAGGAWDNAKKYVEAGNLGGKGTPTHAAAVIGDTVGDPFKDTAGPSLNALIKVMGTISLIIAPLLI

[3] = substrate: O=P(O)(O)OP(=O)(O)O; assay: cells, lysate or membranes; type: biochemical, Phocaeicola vulgatus; conditions: total PPi, first (stronger) of two sites in the dimer, macroscopic constant, 4.8 mM free Mg2+, 10 mM Na+ (5 mM Na2SO4), 25 mM K2SO4, 100 mM Mops-KOH pH 7.2, 25 °C

T1 sequence (Q1JY39 1-668): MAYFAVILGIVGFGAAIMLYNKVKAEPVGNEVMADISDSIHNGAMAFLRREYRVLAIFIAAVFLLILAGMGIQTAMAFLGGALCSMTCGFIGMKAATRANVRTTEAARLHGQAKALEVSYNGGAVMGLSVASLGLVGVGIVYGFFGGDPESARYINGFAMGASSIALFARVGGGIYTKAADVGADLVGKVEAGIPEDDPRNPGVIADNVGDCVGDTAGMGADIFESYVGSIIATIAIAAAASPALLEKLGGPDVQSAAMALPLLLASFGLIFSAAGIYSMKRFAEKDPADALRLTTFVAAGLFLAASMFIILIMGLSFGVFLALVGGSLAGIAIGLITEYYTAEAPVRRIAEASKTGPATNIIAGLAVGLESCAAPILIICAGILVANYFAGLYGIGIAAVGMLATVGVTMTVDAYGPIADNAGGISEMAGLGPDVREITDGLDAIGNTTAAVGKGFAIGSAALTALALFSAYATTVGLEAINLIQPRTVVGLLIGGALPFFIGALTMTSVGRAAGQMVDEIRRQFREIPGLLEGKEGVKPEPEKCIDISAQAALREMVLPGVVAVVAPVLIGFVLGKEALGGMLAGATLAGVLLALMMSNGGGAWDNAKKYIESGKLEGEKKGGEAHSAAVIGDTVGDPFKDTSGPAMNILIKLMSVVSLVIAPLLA

O=P(O)(O)OP(=O)(O)O [PPi]
PPi hydrolysis (continuous Pi assay) and pyranine Na+ transport assay, membrane [1]: Na^+-translocating Da-mPPase caused monensin-sensitive alkalinization of the vesicle lumen in response to PPi addition
PPi hydrolysis (continuous Pi assay) and pyranine H+ transport assay, membrane v [2]: the PPi addition to Dh-mPPase-containing vesicles progressively decreased pyranine fluorescence

B1: Bv-mPPase (Bacteroides vulgatus Na+,H+-translocating mPPase) (Phocaeicola vulgatus ATCC 8482) (protein)
chain: METYLFWIVPIASLLALVLAWYFYKQMMLESEGTPTMEKIASYVRQGAMSYLKQQYKVVGLVFLGLVILFSIMAYGFNLQNPWVPIAFLTGGFFSGLSGFLGMKTATYASARTANAAQHSLNKGLRVAFRSGAVMGLVVVGLGLLDISFWYILLDYCIPTDALNPSAKLCVITTTMLTFGMGASTQALFARVGGGIYTKAADVGADLVGKVEAGIPEDDPRNPATIADNVGDNVGDVAGMGADLYESYCGSILATAALGAAAFIGSDDTVMQFKAVIAPMLIAAVGIVLSIIGIFAVRTKENAGMKELLGSLATGTNLSSVLIVVATFLILWALGLENWVNISFAVVVGLIVGIVIGRSTEYYTSQSYKPTQRLAESGKTGPATVIISGIGLGMVSTTIPVLAVVTGIILSYWLASGFDFANISMGLYGIGIAAVGMLSTLGITLATDAYGPIADNAGGNAEMSGLGKEVRKRTDALDSLGNTTAATGKGFAIGSAALTGLALLASYVEEIRIGLTRLGQTILELPNGITVDVHNASFTDYMLYYDVTLMNPKVLSGMFLGSMMAFLFCGLTMNAVGRAAAHMVEEVRRQFREIKGILTGEAEPDYARCVQISTKGAQREMVFPSLLAIIAPIATGLIFGVPGVIGLLIGGLSSGFVLAIFMANAGGAWDNAKKFIEEGNFGGKGSEVHKATVTGDTVGDPFKDTSGPSLNILIKLMSMVAIVMAGLTVAWSLF
notes: recombinant, expressed in E. coli C41(DE3), in inverted membrane vesicles; homodimer of approx. 70-kDa subunits; EC 7.1.3.1
Km [3]: 15 ± 1 µM
